Key:
[1] = target: T1, CFTR in F508del/F508del primary CF hBE cells (Homo sapiens, UniProt P13569, DEL508-508); test: Ussing chamber electrophysiology assay of CFTR potentiation in F508del/F508del CF bronchial epithelial cells (27° C.); assay type: cell-based
T1 construct: Primary cystic fibrosis human bronchial epithelial (CF hBE) cells were expanded and cultured; endogenous in cells; host or cells: primary CF human bronchial epithelial cells, genotype F508del/F508del
Summary of the method: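 Short-circuit current was recorded under zero-voltage clamp across primary CF bronchial epithelia cultured >30 days at air/liquid interface, bathed apically and basolaterally in HEPES-buffered saline. Sequential additions: amiloride (30 uM), forskolin (10 uM), compound at 4 increasing levels, CFTRinh-172 (20 uM). Responses normalised between DMSO (0%) and maximal positive-control potentiator (100%).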

[2] = target: T2, recombinant F508del V470 CFTR in Fischer rat thyroid (FRT) cells (Homo sapiens, UniProt P13569, DEL508-508); test: FRT ion flux assay of F508del CFTR potentiation; assay type: cell-based; conditions: FRT cells expressing F508del V470 CFTR, forskolin 20 uM, 27° C. pre-incubation
T2 construct: expressed in transfected cells
Summary of the method: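 Potentiation read as YFP quench ~21 s after iodide buffer addition, as second/initial fluorescence ratio normalised between DMSO (0%) and reference potentiator (100%).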

T2 sequence (P13569 with tags, fused parts or gaps DEL508-508): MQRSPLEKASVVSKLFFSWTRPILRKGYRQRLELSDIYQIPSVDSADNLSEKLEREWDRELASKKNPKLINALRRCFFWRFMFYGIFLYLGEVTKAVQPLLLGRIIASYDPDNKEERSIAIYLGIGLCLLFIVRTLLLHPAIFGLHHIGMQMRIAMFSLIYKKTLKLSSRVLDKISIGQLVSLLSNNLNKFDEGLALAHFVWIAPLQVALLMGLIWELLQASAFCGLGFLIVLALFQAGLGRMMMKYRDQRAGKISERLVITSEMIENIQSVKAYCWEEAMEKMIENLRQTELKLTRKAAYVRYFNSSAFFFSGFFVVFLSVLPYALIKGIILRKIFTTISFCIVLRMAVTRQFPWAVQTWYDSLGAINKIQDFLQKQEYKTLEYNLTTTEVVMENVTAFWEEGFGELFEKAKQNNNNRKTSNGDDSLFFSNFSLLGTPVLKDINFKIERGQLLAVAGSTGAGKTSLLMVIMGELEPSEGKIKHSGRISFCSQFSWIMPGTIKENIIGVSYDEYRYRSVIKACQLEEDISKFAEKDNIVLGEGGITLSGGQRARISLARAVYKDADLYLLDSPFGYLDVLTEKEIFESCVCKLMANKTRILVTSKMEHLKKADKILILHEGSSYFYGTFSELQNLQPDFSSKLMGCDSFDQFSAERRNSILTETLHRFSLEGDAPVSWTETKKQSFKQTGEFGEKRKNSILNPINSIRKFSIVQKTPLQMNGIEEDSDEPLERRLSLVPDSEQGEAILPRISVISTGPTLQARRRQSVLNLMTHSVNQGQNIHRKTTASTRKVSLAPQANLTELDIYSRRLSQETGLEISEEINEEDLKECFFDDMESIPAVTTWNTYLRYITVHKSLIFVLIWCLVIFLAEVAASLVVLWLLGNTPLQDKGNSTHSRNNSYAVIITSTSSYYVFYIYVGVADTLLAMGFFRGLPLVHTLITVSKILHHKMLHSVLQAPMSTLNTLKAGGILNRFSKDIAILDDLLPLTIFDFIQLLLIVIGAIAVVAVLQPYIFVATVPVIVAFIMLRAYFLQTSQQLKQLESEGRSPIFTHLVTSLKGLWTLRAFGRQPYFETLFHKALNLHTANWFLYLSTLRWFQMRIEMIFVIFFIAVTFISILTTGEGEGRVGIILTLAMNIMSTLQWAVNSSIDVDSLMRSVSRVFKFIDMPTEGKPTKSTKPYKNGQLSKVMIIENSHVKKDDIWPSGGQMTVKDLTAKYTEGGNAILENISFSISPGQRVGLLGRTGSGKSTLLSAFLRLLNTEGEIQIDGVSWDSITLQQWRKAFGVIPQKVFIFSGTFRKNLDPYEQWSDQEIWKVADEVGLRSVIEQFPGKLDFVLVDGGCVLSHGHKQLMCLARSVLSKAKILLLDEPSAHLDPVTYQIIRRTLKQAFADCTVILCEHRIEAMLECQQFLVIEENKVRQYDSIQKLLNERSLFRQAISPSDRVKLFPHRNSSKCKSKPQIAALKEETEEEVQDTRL
T1 sequence (P13569 with tags, fused parts or gaps DEL508-508): as above

| EC50 [1] [nM] | EC50 [2] [nM] | SMILES |
| --- | --- | --- |
| 162 | 378 | CC(c1cn(-c2ccccc2F)nn1)n1cc(-c2ccc(OC3CC3)cc2)c2c(N)ncnc21 (single isomer, unassigned; enantiomer 2) [Example 118, (−) 5-[4-(Cyclopropyloxy)phenyl]-7-{1-[1-(2-fluorophenyl)-1H-1,2,3-triazol-4-yl]ethyl}-7H-pyrrolo[2,3-d]pyrimidin-4-amine, enantiomer 2] |
| 26 | 10.5 | CCC(c1cn(-c2ccccc2F)nn1)n1cc(-c2cnc(C(F)F)nc2)c2c(N)ncnc21 (single isomer, unassigned; enantiomer 1) [Example 143, 5-[2-(Difluoromethyl)pyrimidin-5-yl]-7-{1-[1-(2-fluorophenyl)-1H-1,2,3-triazol-4-yl]propyl}-7H-pyrrolo[2,3-d]pyrimidin-4-amine, enantiomer 1] |
| 26.1 | 22.2 | CCC(c1cn(-c2cccc(F)c2F)nn1)n1cc(-c2cncnc2OC)c2c(N)ncnc21 (single isomer, unassigned; enantiomer 2) [Example 306, (+) 7-{1-[1-(2,3-Difluorophenyl)-1H-1,2,3-triazol-4-yl]propyl}-5-(4-methoxypyrimidin-5-yl)-7H-pyrrolo[2,3-d]pyrimidin-4-amine, enantiomer 2] |
| 358 | 230 | COCC(c1cn(-c2ccccc2F)nn1)n1cc(-c2cccnc2OC)c2c(N)ncnc21 (centres unmarked) [Example 314, 7-{1-[1-(2-Fluorophenyl)-1H-1,2,3-triazol-4-yl]-2-methoxyethyl}-5-(2-methoxypyridin-3-yl)-7H-pyrrolo[2,3-d]pyrimidin-4-amine] |
| 798 | 922 | COc1ncccc1-c1cn(Cc2cn(-c3ccccc3F)nn2)c2nc(C)nc(N)c12 [Example 202, 7-{[1-(2-Fluorophenyl)-1H-1,2,3-triazol-4-yl]methyl}-5-(2-methoxypyridin-3-yl)-2-methyl-7H-pyrrolo[2,3-d]pyrimidin-4-amine] |
| 297 | 631 | CCC(c1cn(-c2cc(F)ccc2F)nn1)n1cc(-c2cnc(C(F)(F)F)nc2)c2c(N)ncnc21 (single isomer, unassigned) [Example 186, 7-{1-[1-(2,5-difluorophenyl)-1H-1,2,3-triazol-4-yl]propyl}-5-[2-(trifluoromethyl)pyrimidin-5-yl]-7H-pyrrolo[2,3-d]pyrimidin-4-amine] |
| 253 | 138 | Cc1ccccc1-c1cc(C(C)n2cc(-c3ccc(Cl)cc3)c3c(N)ncnc32)on1 (centres unmarked) [Example 266, 5-(4-Chlorophenyl)-7-{1-[3-(2-methylphenyl)-1,2-oxazol-5-yl]ethyl}-7H-pyrrolo[2,3-d]pyrimidin-4-amine] |
| 42.6 | 19.1 | CCC(c1cn(-c2ccccc2)nn1)n1cc(-c2cncnc2OC)c2c(N)ncnc21 (single isomer, unassigned; enantiomer 2) [Example 128, (+) 5-(4-Methoxypyrimidin-5-yl)-7-[1-(1-phenyl-1H-1,2,3-tnazol-4-yl)propyl]-7H-pyrrolo[2,3-d]pyrimidin-4-amine, enantiomer 2] |
| 4.9 | 7.98 | CCC(c1cn(-c2cccc(F)c2F)nn1)n1cc(-c2cc(F)cnc2OC)c2c(N)ncnc21 (single isomer, unassigned; enantiomer 1) [Example 169, 7-{1-[1-(2,3-Difluorophenyl)-1H-1,2,3-triazol-4-yl]propyl}-5-(5-fluoro-2-methoxypyridin-3-yl)-7H-pyrrolo[2,3-d]pyrimidin-4-amine, enantiomer 1] |
| 28.9 | 232 | CC(c1cn(-c2ccccc2F)nn1)n1cc(-c2ccc(Cl)cc2)c2c(N)ncnc21 (centres unmarked) [Example 58, 5-(4-Chlorophenyl)-7-{1-[1-(2-fluorophenyl)-1H-1,2,3-triazol-4-yl]ethyl}-7H-pyrrolo[2,3-d]pyrimidin-4-amine] |
| 39.6 | 90.6 | CC(c1cn(-c2ncccc2F)nn1)n1cc(-c2ccc(OC3CC3)cc2)c2c(N)ncnc21 (centres unmarked) [Example 214, 5-[4-(Cyclopropoxy)phenyl]-7-{1-[1-(3-fluoropyridin-2-yl)-1H-1,2,3-triazol-4-yl]ethyl}-7H-pyrrolo[2,3-d]pyrimidin-4-amine] |
| 110 | 197 | COc1ccccc1-c1cc(C(C)n2cc(-c3ccc(Cl)cc3)c3c(N)ncnc32)on1 (centres unmarked) [Example 260, 5-(4-Chlorophenyl)-7-{1-[3-(2-methoxyphenyl)-1,2-oxazol-5-yl]ethyl}-7H-pyrrolo[2,3-d]pyrimidin-4-amine] |
| 205 | 378 | CCC(c1cn(-c2cc(C(F)(F)F)ccn2)nn1)n1cc(-c2cncnc2OC)c2c(N)ncnc21 (centres unmarked) [Example 242, 5-(4-Methoxypyrimidin-5-yl)-7-(1-{1-[4-(trifluoromethyl)pyridin-2-yl]-1H-1,2,3-triazol-4-yl]propyl}-7H-pyrrolo[2,3-d]pyrimidin-4-amine] |
| 389 | 185 | Nc1ncnc2c1c(C1CC1)cn2C1(c2cn(-c3ccccc3F)nn2)CC1 [Example 295, 5-Cyclopropyl-7-{1-[1-(2-fluorophenyl)-1H-1,2,3-triazol-4-yl]cyclopropyl}-7H-pyrrolo[2,3-d]pyrimidin-4-amine] |
| 65.2 | 203 | CCC(c1cn(-c2ccccc2F)nn1)n1cc(-c2nccnc2OC)c2c(N)ncnc21 (single isomer, unassigned; enantiomer 1) [Example 135, (−) 7-{1-[1-(2-Fluorophenyl)-1H-1,2,3-triazol-4-yl]propyl}-5-(3-methoxypyrazin-2-yl)-7H-pyrrolo[2,3-d]pyrimidin-4-amine, enantiomer 1] |
| 5.48 | 33.4 | CC(c1cn(-c2ccccc2F)nn1)n1cc(-c2ccc(OC3CC3)nc2)c2c(N)ncnc21 (single isomer, unassigned; enantiomer 2) [Example 120, (+) 5-[6-(Cyclopropyloxy)pyridin-3-yl]-7-{1-[1-(2-fluorophenyl)-1H-1,2,3-triazol-4-yl]ethyl}-7H-pyrrolo[2,3-d]pyrimidin-4-amine, enantiomer 2] |
| 26.1 | 112 | Cc1ccc(-c2cn(C(C)c3cnc(-c4ccccc4F)[nH]3)c3ncnc(N)c23)cc1F (centres unmarked) [Example 68, 5-(3-Fluoro-4-methylphenyl)-7-{1-[2-(2-fluorophenyl)-1H-imidazol-5-yl]ethyl}-7H-pyrrolo[2,3-d]pyrimidin-4-amine] |
| 64.7 | 259 | CC(c1cn(CC2CCC2)nn1)n1cc(-c2ccc(Cl)cc2)c2c(N)ncnc21 (centres unmarked) [Example 255, 5-(4-Chlorophenyl)-7-{1-[1-(cyclobutylmethyl)-1H-1,2,3-triazol-4-yl]ethyl}-7H-pyrrolo[2,3-d]pyrimidin-4-amine] |
| 593 | 452 | CCC(c1cn(-c2ccc(F)cc2F)nn1)n1cc(-c2cncnc2OC)c2c(N)ncnc21 (single isomer, unassigned; enantiomer 2) [Example 160, (−) 7-{1-[1-(2,4-Difluorophenyl)-1H-1,2,3-triazol-4-yl]propyl}-5-(4-methoxypyrimidin-5-yl)-7H-pyrrolo[2,3-d]pyrimidin-4-amine, enantiomer 2] |
| 35.4 | 176 | Nc1ncnc2c1c(-c1ccc(Cl)cc1)cn2Cc1cnc(-c2ccccc2)[nH]1 [Example 264, 5-(4-Chlorophenyl)-7-[(2-phenyl-1H-imidazol-5-yl)methyl]-7H-pyrrolo[2,3-d]pyrimidin-4-amine] |
| 578 | 470 | COc1ncccc1-c1cn(Cc2ccn(-c3ccccc3F)n2)c2ncnc(N)c12 [Example 268, 7-{[1-(2-Fluorophenyl)-1H-pyrazol-3-yl]methyl}-5-(2-methoxypyridin-3-yl)-7H-pyrrolo[2,3-d]pyrimidin-4-amine] |
| 1.66 | 0.55 | CC(c1cnn(-c2ccccc2F)c1)n1c(C#N)c(-c2cnc(C(F)F)nc2)c2c(N)ncnc21 (single isomer, unassigned) [Example 1, 4-Amino-5-[2-(difluoromethyl)pyrimidin-5-yl]-7-{1-[1-(2-fluorophenyl)-1H-pyrazol-4-yl]ethyl}-7H-pyrrolo[2,3-d]pyrimidine-6-carbonitrile] |
| 52 | 206 | Cc1c(-c2ccc(Cl)cc2)c2c(N)ncnc2n1C(C)c1cc(-c2ccccc2F)no1 (centres unmarked) [Example 259, 5-(4-Chlorophenyl)-7-{1-[3-(2-fluorophenyl)-1,2-oxazol-5-yl]ethyl}-6-methyl-7H-pyrrolo[2,3-d]pyrimidin-4-amine] |
| 833 | 398 | COc1ncccc1-c1cn(Cc2nnc(-c3ccccc3)[nH]2)c2ncnc(N)c12 [Example 272, 5-(2-Methoxypyridin-3-yl)-7-[(5-phenyl-4H-1,2,4-triazol-3-yl)methyl]-7H-pyrrolo[2,3-d]pyrimidin-4-amine] |
| 187 | 677 | CC(c1cn(-c2ccccc2F)nn1)n1cc(-c2ccc(OC3CC3)nc2)c2c(N)ncnc21 (single isomer, unassigned; enantiomer 1) [Example 119, (−) 5-[6-(Cyclopropyloxy)pyridin-3-yl]-7-{1-[1-(2-fluorophenyl)-1H-1,2,3-triazol-4-yl]ethyl}-7H-pyrrolo[2,3-d]pyrimidin-4-amine, enantiomer 1] |
